Data: ChEMBL document CHEMBL5260854, “Discovery of Novel TRPM8 Blockers Suitable for the Treatment of Somatic and Ocular Painful Conditions: A Journey through pKa and LogD Modulation” (J Med Chem, 2021)
Converted amounts (≈) assume the structure as drawn. The source made the active and inactive calls. No cut-off for these calls is given here.

What was measured:
[1] = biological target: T1, Transient receptor potential cation channel subfamily M member 8 (Homo sapiens, UniProt Q7Z2W7); assay: Inhibition of human TRPM8 expressed in HEK293 cells assessed as reduction in ethyl 4-methoxy-2-phenylthiazole-5-carboxylate induced Ca2+ efflux preincubated for 5 mins followed by ethyl 4-methoxy-2-phenylthiazole-5-carboxylate addition and measured for 3 mins by FLIPR assay; assay type: cell-based
[2] = Metabolic stability in rat liver microsomes assessed as parent compound remaining after 30 mins; assay type: ADME, Microsome; settings: for remaining at 0.5 h: read-out: Stability
[3] = Lipophilicity, logP of compound; assay type: physicochemical; settings: octanol/water
[4] = Dissociation constant, pKa of the compound; assay type: physicochemical
[5] = Lipophilicity, logD of the compound at pH 7.4; assay type: physicochemical; settings: buffer
[6] = Solubility of compound at pH 7.4; assay type: physicochemical; settings: buffer
[7] = Metabolic stability in human liver S9 fraction assay as half life in presence of NADPH, glutathione, UDPGA and PAPS; assay type: ADME, subcellular
[8] = biological target: T1, Transient receptor potential cation channel subfamily M member 8; assay: Inhibition of human TRPM8 expressed in HEK293 cells assessed as reduction in icilin induced Ca2+ efflux preincubated for 5 mins followed by icilin addition and measured for 3 mins by FLIPR assay; assay type: cell-based
[9] = biological target: Transient receptor potential cation channel subfamily V member 1 (Homo sapiens) (UniProt Q8NER1); assay: Inhibition of TRPV1 (unknown origin) upto 100 uM
[10] = biological target: Transient receptor potential cation channel subfamily V member 4 (Homo sapiens) (UniProt Q9HBA0); assay: Inhibition of TRPV4 (unknown origin) upto 100 uM
[11] = biological target: Transient receptor potential cation channel subfamily A member 1 (Homo sapiens) (UniProt O75762); assay: Inhibition of TRPA1 (unknown origin) upto 100 uM
[12] = biological target: Sodium channel protein type 9 subunit alpha (Homo sapiens) (UniProt Q15858); assay: Inhibition of Nav1.7 (unknown origin)
[13] = Apparent permeability in HCECs at 0.1%; assay type: ADME, cell-based, HCEC; settings: human, not told
[14] = Metabolic stability in rat liver microsomes assessed as phase 1 metabolism by measuring half life; assay type: ADME, Microsome
[15] = Metabolic stability in rat liver microsomes assessed as phase 2 metabolism by measuring half life; assay type: ADME, Microsome
[16] = Clearance in rat at 3 mg/kg, iv; assay type: ADME, organism-based; settings: in vivo
[17] = Volume of distribution at steady state in rat at 3 mg/kg, iv; assay type: ADME, organism-based; settings: in vivo, read-out: Vdss
[18] = Half life in rat at 3 mg/kg, iv; assay type: ADME, organism-based; settings: in vivo
[19] = Cmax in rat at 10 mg/kg, po; assay type: ADME, organism-based; set-up: dose 10 mg/kg, route po; settings: in vivo
[20] = Half life in rat at 10 mg/kg, po; assay type: ADME, organism-based; settings: in vivo
[21] = Oral bioavailability in rat at 10 mg/kg; assay type: ADME, organism-based; settings: in vivo
[22] = Stability in human hepatocytes assessed as half life; assay type: ADME, cell-based, Hepatocyte
[23] = Stability in human plasma assessed as compound remaining after 60 mins; assay type: ADME, cell-free; settings: read-out: Stability
[24] = Stability in rat plasma assessed as compound remaining after 60 mins; assay type: ADME, cell-free; settings: read-out: Stability
[25] = Clearance in rat at 5 mg/kg, iv; assay type: ADME, organism-based; settings: in vivo
[26] = Volume of distribution at steady state in rat at 5 mg/kg, iv; assay type: ADME, organism-based; settings: in vivo, read-out: Vdss
[27] = Half life in rat at 5 mg/kg, iv; assay type: ADME, organism-based; settings: in vivo
[28] = biological target: T1, Transient receptor potential cation channel subfamily M member 8; assay: Inhibition of human TRPM8 expressed in HEK293 cells assessed as reduction in cold stimulated Ca2+ efflux preincubated for 5 mins followed by cold stimulation and measured for 3 mins; assay type: cell-based
[29] = biological target: Transient receptor potential cation channel subfamily M member 3 (Homo sapiens) (UniProt Q9HCF6); assay: Inhibition of TRPM3 (unknown origin) upto 100 uM
[30] = Clearance in rat at 10 mg/kg, iv; assay type: ADME, organism-based; settings: in vivo
[31] = Volume of distribution at steady state in rat at 10 mg/kg, iv; assay type: ADME, organism-based; settings: in vivo, read-out: Vdss
[32] = Half life in rat at 10 mg/kg, iv; assay type: ADME, organism-based; settings: in vivo
[33] = Metabolic stability in rat liver microsomes assessed as parent compound remaining after 4 hrs; assay type: ADME, Microsome; settings: read-out: Stability
[34] = Stability in stimulated gastric fluid at pH 1.2; assay type: physicochemical; settings: simulated gi fluid

T1 sequence (Q7Z2W7 whole entry): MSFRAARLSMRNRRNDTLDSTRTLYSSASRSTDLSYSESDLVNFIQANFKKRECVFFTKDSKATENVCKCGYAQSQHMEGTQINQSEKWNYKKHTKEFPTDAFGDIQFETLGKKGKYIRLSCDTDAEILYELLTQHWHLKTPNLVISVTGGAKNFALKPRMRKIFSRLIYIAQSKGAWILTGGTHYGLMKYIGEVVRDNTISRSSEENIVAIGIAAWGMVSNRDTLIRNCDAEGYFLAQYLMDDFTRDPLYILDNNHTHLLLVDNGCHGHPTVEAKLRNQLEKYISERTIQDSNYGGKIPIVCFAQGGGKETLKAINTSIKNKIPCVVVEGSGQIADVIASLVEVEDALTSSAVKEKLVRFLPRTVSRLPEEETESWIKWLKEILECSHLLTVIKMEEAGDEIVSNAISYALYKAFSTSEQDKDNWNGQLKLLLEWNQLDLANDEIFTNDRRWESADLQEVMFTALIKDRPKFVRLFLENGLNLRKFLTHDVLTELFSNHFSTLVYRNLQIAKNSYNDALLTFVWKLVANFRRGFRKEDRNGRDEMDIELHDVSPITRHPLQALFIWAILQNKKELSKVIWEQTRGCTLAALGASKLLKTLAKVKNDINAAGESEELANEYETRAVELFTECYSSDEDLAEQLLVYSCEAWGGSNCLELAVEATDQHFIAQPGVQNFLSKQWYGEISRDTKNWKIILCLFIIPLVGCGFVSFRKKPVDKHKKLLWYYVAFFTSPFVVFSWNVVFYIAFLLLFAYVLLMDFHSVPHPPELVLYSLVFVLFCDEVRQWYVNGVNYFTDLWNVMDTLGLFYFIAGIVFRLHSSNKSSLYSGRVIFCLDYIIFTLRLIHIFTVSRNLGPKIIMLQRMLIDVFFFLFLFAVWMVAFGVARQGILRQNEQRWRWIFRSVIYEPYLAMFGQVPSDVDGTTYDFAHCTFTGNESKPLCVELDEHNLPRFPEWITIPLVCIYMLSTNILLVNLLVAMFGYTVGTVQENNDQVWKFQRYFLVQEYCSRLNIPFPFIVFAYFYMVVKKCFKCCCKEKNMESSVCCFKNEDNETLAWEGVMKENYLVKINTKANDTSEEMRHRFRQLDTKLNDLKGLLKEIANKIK
Chain of Transient receptor potential cation channel subfamily A member 1 (Homo sapiens) (O75762 whole entry): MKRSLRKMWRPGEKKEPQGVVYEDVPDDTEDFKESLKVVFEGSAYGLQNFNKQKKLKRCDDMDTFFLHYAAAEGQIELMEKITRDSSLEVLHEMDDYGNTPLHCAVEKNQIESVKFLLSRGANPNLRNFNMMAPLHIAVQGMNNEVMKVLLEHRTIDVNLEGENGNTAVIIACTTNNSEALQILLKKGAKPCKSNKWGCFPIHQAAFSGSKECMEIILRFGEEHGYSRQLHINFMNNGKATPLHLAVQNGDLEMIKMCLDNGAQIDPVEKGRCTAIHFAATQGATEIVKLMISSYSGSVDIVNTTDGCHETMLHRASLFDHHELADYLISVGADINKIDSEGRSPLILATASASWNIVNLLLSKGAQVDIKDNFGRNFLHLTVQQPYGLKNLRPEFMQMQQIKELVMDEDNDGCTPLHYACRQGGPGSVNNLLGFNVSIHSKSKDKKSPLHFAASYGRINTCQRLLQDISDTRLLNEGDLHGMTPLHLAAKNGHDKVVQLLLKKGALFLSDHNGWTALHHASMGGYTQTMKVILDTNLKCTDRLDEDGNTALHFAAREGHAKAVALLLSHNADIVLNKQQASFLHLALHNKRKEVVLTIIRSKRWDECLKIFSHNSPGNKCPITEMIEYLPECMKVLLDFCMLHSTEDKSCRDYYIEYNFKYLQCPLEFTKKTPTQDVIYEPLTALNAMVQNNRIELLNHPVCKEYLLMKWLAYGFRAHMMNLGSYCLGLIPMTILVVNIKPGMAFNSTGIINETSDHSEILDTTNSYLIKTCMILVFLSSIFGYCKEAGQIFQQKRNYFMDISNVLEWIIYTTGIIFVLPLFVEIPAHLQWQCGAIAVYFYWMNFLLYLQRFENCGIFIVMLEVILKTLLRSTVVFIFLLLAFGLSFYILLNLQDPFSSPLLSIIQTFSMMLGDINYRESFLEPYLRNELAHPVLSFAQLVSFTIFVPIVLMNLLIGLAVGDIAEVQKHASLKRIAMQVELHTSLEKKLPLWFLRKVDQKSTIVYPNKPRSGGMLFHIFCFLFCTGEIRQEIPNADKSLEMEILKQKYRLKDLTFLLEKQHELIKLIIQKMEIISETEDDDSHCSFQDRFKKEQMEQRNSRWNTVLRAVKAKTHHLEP
Chain of Transient receptor potential cation channel subfamily V member 1 (Homo sapiens) (Q8NER1 whole entry): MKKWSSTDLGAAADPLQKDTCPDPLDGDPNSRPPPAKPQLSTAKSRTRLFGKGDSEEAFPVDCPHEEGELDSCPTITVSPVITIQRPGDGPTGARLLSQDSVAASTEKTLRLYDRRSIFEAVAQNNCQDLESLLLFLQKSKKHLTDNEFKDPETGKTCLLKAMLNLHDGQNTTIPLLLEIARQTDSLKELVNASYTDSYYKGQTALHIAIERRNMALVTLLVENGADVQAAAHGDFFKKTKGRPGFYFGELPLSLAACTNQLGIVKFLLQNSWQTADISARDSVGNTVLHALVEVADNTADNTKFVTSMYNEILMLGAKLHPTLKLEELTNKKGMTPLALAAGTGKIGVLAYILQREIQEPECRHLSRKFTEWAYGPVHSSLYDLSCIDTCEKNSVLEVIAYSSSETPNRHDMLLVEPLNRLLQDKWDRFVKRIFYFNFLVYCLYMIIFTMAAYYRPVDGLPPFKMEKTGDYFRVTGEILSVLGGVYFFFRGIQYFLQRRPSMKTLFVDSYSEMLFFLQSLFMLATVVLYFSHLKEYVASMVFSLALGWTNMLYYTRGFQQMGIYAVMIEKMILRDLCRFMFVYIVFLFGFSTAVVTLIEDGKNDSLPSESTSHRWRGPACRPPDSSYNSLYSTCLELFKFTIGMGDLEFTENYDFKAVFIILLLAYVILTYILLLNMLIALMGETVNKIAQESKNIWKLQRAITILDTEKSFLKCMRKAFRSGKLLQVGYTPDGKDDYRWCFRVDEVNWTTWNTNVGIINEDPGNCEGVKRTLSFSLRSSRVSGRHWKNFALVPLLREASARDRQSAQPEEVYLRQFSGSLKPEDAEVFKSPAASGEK
Chain of Transient receptor potential cation channel subfamily V member 4 (Homo sapiens) (Q9HBA0 whole entry): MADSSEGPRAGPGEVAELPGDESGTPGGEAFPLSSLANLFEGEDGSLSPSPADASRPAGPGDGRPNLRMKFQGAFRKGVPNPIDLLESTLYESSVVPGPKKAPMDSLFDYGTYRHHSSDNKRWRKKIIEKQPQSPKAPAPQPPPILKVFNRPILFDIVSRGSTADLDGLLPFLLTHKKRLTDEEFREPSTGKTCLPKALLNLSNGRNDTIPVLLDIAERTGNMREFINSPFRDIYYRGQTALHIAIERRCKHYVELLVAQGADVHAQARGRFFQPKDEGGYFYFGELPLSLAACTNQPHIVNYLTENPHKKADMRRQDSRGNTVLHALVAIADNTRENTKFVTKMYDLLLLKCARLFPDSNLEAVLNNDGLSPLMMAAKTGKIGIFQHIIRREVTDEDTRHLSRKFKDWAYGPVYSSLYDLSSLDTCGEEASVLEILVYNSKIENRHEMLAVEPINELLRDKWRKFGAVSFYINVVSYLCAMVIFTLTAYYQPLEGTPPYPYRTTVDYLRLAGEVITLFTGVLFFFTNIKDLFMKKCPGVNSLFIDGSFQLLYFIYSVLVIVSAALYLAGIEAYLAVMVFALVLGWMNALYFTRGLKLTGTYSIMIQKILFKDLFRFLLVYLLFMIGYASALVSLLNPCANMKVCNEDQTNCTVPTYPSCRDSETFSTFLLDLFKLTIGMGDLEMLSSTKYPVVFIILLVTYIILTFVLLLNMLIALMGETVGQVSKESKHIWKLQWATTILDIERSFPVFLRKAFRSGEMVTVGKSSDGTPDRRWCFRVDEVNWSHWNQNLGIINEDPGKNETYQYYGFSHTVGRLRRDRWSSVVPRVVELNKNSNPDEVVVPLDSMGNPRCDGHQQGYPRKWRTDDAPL

CCOC(=O)c1ccc(-c2cccc(F)c2)cc1O
IC50 [1]: > 100 µM

Cn1nnc(-c2sc(-c3cccc(F)c3)nc2O)n1
IC50 [1]: 0.214 µM

CSc1cc(-c2ccc(Cl)cc2)[nH]n1
remaining at 0.5 h [2]: 41%
logP [3]: 3.57

CCOC(=O)c1sc(-c2ccccc2)nc1N
IC50 [1]: > 100 µM

O=C(c1sc(-c2ccccc2O)nc1O)N1CCCO1
pKa [4]: 9.3
logD [5]: 0.77
solubility [6]: 9.7 mM (≈ 2840 µg/mL)
half-life [7]: 53 min
IC50 [8]: 0.0045 µM
inhibition [9]: inactive
inhibition [10]: inactive
inhibition [11]: inactive
inhibition [12]: inactive
Papp at 0.1 % [13]: 48.3 ×10⁻⁶ cm/s

CCn1nnc(-c2sc(-c3cccc(F)c3)nc2O)n1
half-life [2]: < 30 min
pKa [4]: 5.9
logD [5]: 2
half-life [14]: 38 min
half-life [15]: > 5 min
clearance [16]: 3.11 mL/min/kg
Vd [17]: 0.082 L/kg
half-life [18]: 44.4 min
Cmax [19]: 47 ng/mL
half-life [20]: 307 min
bioavailability [21]: 1%
solubility [6]: 0.631 mM (≈ 184 µg/mL)
half-life [22]: 56.7 min
remaining at 1 h [23]: 95%
remaining at 1 h [24]: 92%

CCn1nnc(-c2sc(-c3cccc(O)c3)nc2O)n1
IC50 [1]: 0.239 µM

CCNC(=O)c1sc(-c2ccccc2)nc1O
IC50 [1]: > 100 µM

CCOC(=O)c1sc(-c2ccccc2)nc1OC
IC50 [1]: > 100 µM

CCCC(=O)c1sc(-c2cccc(F)c2)nc1O
pKa [4]: 4.31
logD [5]: 1.18
half-life [14]: 39.3 min
half-life [15]: 127 min

CCOC(=O)c1sc(-c2cccc(Cl)c2)nc1O
IC50 [1]: 1.3 µM

CCN(C(=O)/C=C/c1cccc([N+](=O)[O-])c1)c1ccccc1
IC50 [1]: 0.575 µM
remaining at 0.5 h [2]: 32%
logP [3]: 3.6

CCOC(=O)c1cnc(-c2ccccc2)s1
IC50 [1]: > 100 µM

CCn1nnc(-c2sc(-c3ccc(F)cc3)nc2O)n1
IC50 [1]: 0.286 µM

CCn1nnnc1-c1sc(-c2cccc(F)c2)nc1O
IC50 [1]: > 100 µM

CCn1nnc(-c2sc(-c3cccc(N)c3)nc2O)n1
IC50 [1]: 0.061 µM

CC(C)C(=O)c1sc(-c2cccc(F)c2)nc1O
pKa [4]: 4.27
logD [5]: 0.91
half-life [14]: 59.1 min
half-life [15]: 97.8 min

CCC(=O)c1sc(-c2cccc(F)c2)nc1O
IC50 [1]: 0.029 µM
logD [5]: 0.44
half-life [14]: 118 min
half-life [15]: 136 min
clearance [25]: 5.31 mL/min/kg
Vd [26]: 1.69 L/kg
half-life [27]: 189 min
Cmax [19]: 10700 ng/mL
half-life [20]: 188 min
bioavailability [21]: 98.8%
solubility [6]: 15.2 mM (≈ 3820 µg/mL)
IC50 [8]: 0.033 µM
IC50 [28]: 0.0085 µM
inhibition [29]: inactive
inhibition [9]: inactive
inhibition [10]: inactive
inhibition [11]: inactive

O=C(O)c1ccc(C(=O)O)c(-c2c3ccc(=O)cc-3oc3cc(O)ccc23)c1 [6-Carboxyfluorescein]
Papp at 0.1 % [13]: 1.9 ×10⁻⁶ cm/s

CCn1nnc(-c2sc(-c3c(Cl)cccc3Cl)nc2O)n1
IC50 [1]: 16.5 µM

CCOC(=O)c1oc(-c2ccc(Cl)cc2)nc1O
IC50 [1]: > 100 µM

O=C(c1sc(-c2cccc(F)c2)nc1O)N1CCCOC1
IC50 [1]: > 100 µM

CCn1nnc(-c2sc(-c3ccc(O)cc3)nc2O)n1
IC50 [1]: 11.6 µM

CC(=O)c1sc(-c2cccc(F)c2)nc1O
pKa [4]: 4.1
logD [5]: 0.77
half-life [14]: 35.2 min
half-life [15]: 108 min

CCOC(=O)Cc1sc(-c2ccccc2)nc1O
IC50 [1]: 0.95 µM

O=C(c1sc(-c2cccc(F)c2)nc1O)N1CCCCCO1
IC50 [1]: 0.032 µM

O=C(c1sc(-c2cccc(F)c2)nc1O)N1CCOCC1
IC50 [1]: 12.2 µM

COC(=O)c1nc(-c2ccccc2)sc1O
IC50 [1]: > 100 µM

CC(C)CC(=O)c1sc(-c2cccc(F)c2)nc1O
IC50 [1]: 0.289 µM
pKa [4]: 4.3
logD [5]: 1.35
half-life [14]: 49.8 min
half-life [15]: 156 min

Cc1nc(-c2sc(-c3cccc(F)c3)nc2O)no1
IC50 [1]: 1.8 µM

O=C(O)c1sc(-c2ccccc2)nc1O
IC50 [1]: > 100 µM

CCOC(=O)c1sc(-c2ccccc2)nc1CO
IC50 [1]: > 100 µM

CCON(C)C(=O)c1sc(-c2cccc(F)c2)nc1O
IC50 [1]: 1.68 µM

CCOC(=O)c1sc(-c2ccccc2)nc1O
IC50 [1]: 0.032 µM

CCn1nnc(-c2sc(-c3ccc(Cl)cc3)nc2O)n1
IC50 [1]: 7.55 µM

COc1cccc(NS(=O)(=O)c2c(C)cc(C)c([N+](=O)[O-])c2C)c1
remaining at 0.5 h [2]: 29%
logP [3]: 4.33
pKa [4]: 7.8
logD [5]: 3.19

O=C(c1sc(-c2cccc(F)c2)nc1O)N1CCCO1
pKa [4]: 6.3
logD [5]: 0.82
solubility [6]: 7.1 mM (≈ 2090 µg/mL)
half-life [7]: > 120 min
Papp at 0.1 % [13]: 16.4 ×10⁻⁶ cm/s

COC(=O)c1sc(-c2ccccc2)nc1O
remaining at 0.5 h [2]: 42%
logP [3]: 3.77
pKa [4]: 6.3
logD [5]: 2.5

CCOC(=O)c1sc(-c2cccc(F)c2)nc1O
IC50 [1]: 0.039 µM
pKa [4]: 4.7
logD [5]: 1.5
half-life [14]: 27 min
half-life [15]: > 5 min
clearance [30]: 24 mL/min/kg
Vd [31]: 0.259 L/kg
half-life [32]: 33.6 min
Cmax [19]: 2140 ng/mL
half-life [20]: 137 min
bioavailability [21]: 15%
solubility [6]: 0.08 mM (≈ 21.4 µg/mL)
remaining at 4 h [33]: 105%
Stability [34]: 50%

Cc1nnc(-c2sc(-c3cccc(F)c3)nc2O)o1
IC50 [1]: 9.1 µM

CCN(CC)c1ccc2c(-c3ccccc3C(=O)O)c3ccc(=[N+](CC)CC)cc-3oc2c1.[Cl-] [RHODAMINE]
Papp at 0.1 % [13]: 36.6 ×10⁻⁶ cm/s

Oc1nc(-c2cccc(F)c2)sc1-c1nn[nH]n1
IC50 [1]: > 100 µM
